Results reported in US20070254907A1, “COMPOSITIONS AND METHODS FOR CONTROLLING INFESTATION” (HATCHTECH PTY LTD, priority 2003, published 2007).
Several values for one entry are separate records, joined by “and”; a condition that tells them apart may be missing. Equal entries are not always repeated.

Assays:
[1] = system: Lice (L) and Plutella (P) eggs; assay: whole plant or invertebrate; settings: read-out: Ovicidal activity %
lice eggs = assay: Standard lice egg-hatching assay, commercial head lice products with rinse; type: in vivo; settings: for H (number of eggs successfully hatched) / Ph (number of eggs partly hatched): per replicate, products per manufacturer's recommendations, 1,10-phenanthroline 10 mM, rinsed
Protocol: (§1) These three products were tested according to manufacturer's recommendations. Groups of eggs (24 hours old) were treated with the different products according to manufacturer's recommendations for the appropriate period of time (5-10 minutes) followed by a rinse for 1-2 minutes in 32° C. water. A positive controls (10 mM 1,10-phenanthroline) and two negative controls (no treatment and 20% Methanol) were also incorporated. Post exposure to the different products, the eggs were rinsed with warm water at 32° C. before being blotted dry on tissue paper and placed at 32° C., 70% RH and left to hatch. A second group of eggs, (48 hours old) were treated as previously described and also left to hatch. This process was repeated at 24 hour intervals on head lice eggs up to 120 hours post laying. This method of assaying inhibitors more closely mirrors the field situation where lice eggs will be at various stages of development on the head and permits the inhibitory effects to be observed on these different stages of the parasite.
as §1, with “two” for “three”, “Two” for “A positive controls (10 mM 1,10-phenanthroline) and two”, “ethanol)” for “Methanol)”, “were” for “were rinsed with warm water at 32° C. before being”

H. contortus eggs = assay: Egg hatching in Haemonchus contortus; type: in vivo
Protocol: In an attempt to improve control of H. contortus the effects of the compound 5,5′-dimethyl-2,2′-dipyridyl was examined on H. contortus eggs. Eggs were recovered from the faeces of infected sheep using a standard sucrose floatation method. The eggs were corrected to a density of approximately 2,500 eggs per mL and were then exposed to varying concentrations of compound and incubated for 48 hours at 25° C. The eggs were then examined to determine the ovicidal efficacy of the compound in comparison to untreated control and a solvent only control.
In addition, the ovicidal efficacy of the compound 2-acetyl-1-tetralone was examined against H. contortus (FIG. 10). The same protocol was used as described for 5,5′-dimethyl-2,2′-dipyridyl.

head lice eggs = assay: Head lice egg hatching with formulated compound; type: in vivo; settings: 20 mM formulation
Protocol: Gravid female lice were permitted to lay eggs. The eggs were counted, inspected under a light microscope and all eggs that appeared undamaged were allocated to one of two treatment groups. One group was exposed to 5′-dimethyl-2,2′-dipyridyl in a formulation, while the second group was exposed to the formulation only. The protocol was as follows:
Treatments: 5'-dimethyl-2,2'dipyridyl (20mM) n=10
Vehicle control only n=10
Exposure time: 10 minutes
Wash time: 1 minute @˜37° C.
Incubation: All eggs were placed at 31° C. in a humid incubator and monitored for signs of development specifically of the eye and subsequent hatching, see Table 21.

Compound	inhibition at 10000 µM [1]	ovicidal activity across the different stages of lice egg hatching (lice eggs; 24-120 hr post egg laying)	H (number of eggs successfully hatched) (lice eggs; treated 24 hr post egg laying)	Ph (number of eggs partly hatched) (lice eggs; treated 24 hr post egg laying)	H (number of eggs successfully hatched) (lice eggs; treated 48 hr post egg laying)	Ph (number of eggs partly hatched) (lice eggs; treated 48 hr post egg laying)	H (number of eggs successfully hatched) (lice eggs; treated 72 hr post egg laying)	Ph (number of eggs partly hatched) (lice eggs; treated 72 hr post egg laying)	H (number of eggs successfully hatched) (lice eggs; treated 96 hr post egg laying)	Ph (number of eggs partly hatched) (lice eggs; treated 96 hr post egg laying)	H (number of eggs successfully hatched) (lice eggs; treated 120 hr post egg laying)	Ph (number of eggs partly hatched) (lice eggs; treated 120 hr post egg laying)	ovicidal efficacy on H. contortus eggs (H. contortus eggs; 180 and 18 ug/mL (1 and 0.1 mM), 48 hours at 25° C. (FIG. 8))	effectiveness at inhibiting H. contortus egg hatching compared to ivermectin (H. contortus eggs; FIG. 8 versus FIG. 9)	egg hatching in head lice (head lice eggs; 10 minutes, 1 minute wash)	eggs that failed to hatch (did not develop) (head lice eggs; n=10 eggs)
c1cnc2c(c1)ccc1cccnc12 [1,10-phenanthroline, reference compound]	100%	highly effective at inhibiting lice egg hatching	0	0	0	0	0	0	0	0	0 and 4 and 1	0				
Cc1ccc(-c2ccc(C)cn2)nc1 [5,5′-dimethyl-2,2′-dipyridyl]													potently ovicidal	~10 ×	significantly suppress egg hatching	80%
